In ChEMBL document CHEMBL5365500, “Development and Antibacterial Properties of 4-[4-(Anilinomethyl)-3-phenylpyrazol-1-yl]benzoic Acid Derivatives as Fatty Acid Biosynthesis Inhibitors” (J Med Chem, 2023):
In brackets after ≈: the same amount, converted by molar mass.

Key:
Format in all cases: functional
Details in all cases: time 20-24 hrs
Staphylococcus aureus [1] = experiment: Antimicrobial activity against antibiotic-resistant Staphylococcus aureus ATCC 700699 assessed as inhibition of visible growth measured after 20 to 24 hrs incubation by CLSI method
Enterococcus faecium = experiment: Antimicrobial activity against antibiotic-resistant Enterococcus faecium ATCC 700221 assessed as inhibition of visible growth measured after 20 to 24 hrs incubation by CLSI method
Staphylococcus aureus [2] = experiment: Antimicrobial activity against antibiotic-resistant Staphylococcus aureus ATCC 33591 assessed as inhibition of visible growth measured after 20 to 24 hrs incubation by CLSI method
Bacillus subtilis = experiment: Antimicrobial activity against antibiotic-resistant Bacillus subtilis ATCC 6623 assessed as inhibition of visible growth measured after 20 to 24 hrs incubation by CLSI method
Enterococcus faecalis [3] = experiment: Antimicrobial activity against antibiotic-resistant Enterococcus faecalis ATCC 51299 assessed as inhibition of visible growth measured after 20 to 24 hrs incubation by CLSI method
Staphylococcus aureus [4] = experiment: Antimicrobial activity against antibiotic-resistant Staphylococcus aureus ATCC BAA-2312 assessed as inhibition of visible growth measured after 20 to 24 hrs incubation by CLSI method
Staphylococcus aureus [5] = experiment: Antimicrobial activity against Staphylococcus aureus ATCC 25923 assessed as inhibition of visible growth measured after 20 to 24 hrs incubation by CLSI method
Enterococcus faecalis [6] = experiment: Antimicrobial activity against antibiotic-susceptible Enterococcus faecalis ATCC 29212 assessed as inhibition of visible growth measured after 20 to 24 hrs incubation by CLSI method
Staphylococcus aureus [7] = experiment: Antimicrobial activity against antibiotic-resistant Staphylococcus aureus ATCC 33592 assessed as inhibition of visible growth measured after 20 to 24 hrs incubation by CLSI method
[8] = tested on: Staphylococcus epidermidis; experiment: Antimicrobial activity against antibiotic-resistant Staphylococcus epidermidis ATCC 700296 assessed as inhibition of visible growth measured after 20 to 24 hrs incubation by CLSI method

| Structure (SMILES) | MIC (Staphylococcus aureus [1]) [µg/mL] | MIC (Enterococcus faecium) [µg/mL] | MIC (Staphylococcus aureus [2]) [µg/mL] | MIC (Bacillus subtilis) [µg/mL] | MIC (Enterococcus faecalis [3]) [µg/mL] | MIC (Staphylococcus aureus [4]) [µg/mL] | MIC (Staphylococcus aureus [5]) [µg/mL] | MIC (Enterococcus faecalis [6]) [µg/mL] | MIC (Staphylococcus aureus [7]) [µg/mL] | MIC [8] [µg/mL] |
| --- | --- | --- | --- | --- | --- | --- | --- | --- | --- | --- |
| O=C(O)c1ccc(-n2cc(CNc3ccc(F)cc3)c(-c3ccc(F)c(F)c3)n2)cc1 | > 32 | > 32 | > 32 | > 32 | > 32 | > 32 | > 32 | > 32 | > 32 | > 32 |
| O=C(O)c1ccc(-n2cc(CNc3cc(Cl)c(F)c(Cl)c3)c(-c3ccc(F)cc3)n2)cc1 | 2 (≈ 4.22 µM) | 4 (≈ 8.43 µM) | 0.5 (≈ 1.05 µM) | 1 (≈ 2.11 µM) | 4 (≈ 8.43 µM) | 1 (≈ 2.11 µM) | 1 (≈ 2.11 µM) | 8 (≈ 16.9 µM) | 1 (≈ 2.11 µM) | 2 (≈ 4.22 µM) |
| Cc1cc(NCc2cn(-c3ccc(C(=O)O)cc3)nc2-c2ccc(F)cc2)ccc1F | 8 (≈ 19.1 µM) | > 32 | 8 (≈ 19.1 µM) | 4 (≈ 9.54 µM) | > 32 | 16 (≈ 38.1 µM) | 16 (≈ 38.1 µM) | > 32 | 16 (≈ 38.1 µM) | 32 (≈ 76.3 µM) |
| O=C(O)c1ccc(-n2cc(CNc3cc(F)cc(C(F)(F)F)c3)c(-c3cccc(F)c3)n2)cc1 | 2 (≈ 4.22 µM) | 4 (≈ 8.45 µM) | 1 (≈ 2.11 µM) | 1 (≈ 2.11 µM) | 8 (≈ 16.9 µM) | 2 (≈ 4.22 µM) | 2 (≈ 4.22 µM) | 8 (≈ 16.9 µM) | 1 (≈ 2.11 µM) | 4 (≈ 8.45 µM) |
| O=C(O)c1ccc(-n2cc(CNc3cc(C(F)(F)F)cc(C(F)(F)F)c3)c(-c3ccc(F)c(F)c3)n2)cc1 | 1 (≈ 1.85 µM) | 2 (≈ 3.69 µM) | 0.5 (≈ 0.924 µM) | 0.5 (≈ 0.924 µM) | 2 (≈ 3.69 µM) | 0.5 (≈ 0.924 µM) | 1 (≈ 1.85 µM) | 2 (≈ 3.69 µM) | 1 (≈ 1.85 µM) | 4 (≈ 7.39 µM) |
| O=C(O)c1ccc(-n2cc(CNc3cccc(Cl)c3)c(-c3ccc(F)cc3)n2)cc1 | 8 (≈ 19 µM) | 32 (≈ 75.9 µM) | 4 (≈ 9.48 µM) | 4 (≈ 9.48 µM) | 32 (≈ 75.9 µM) | 4 (≈ 9.48 µM) | 8 (≈ 19 µM) | 32 (≈ 75.9 µM) | 16 (≈ 37.9 µM) | 16 (≈ 37.9 µM) |
| O=C(O)c1ccc(-n2cc(CNc3cccc(F)c3)c(-c3ccc(F)cc3)n2)cc1 | 16 (≈ 39.5 µM) | > 32 | 16 (≈ 39.5 µM) | 8 (≈ 19.7 µM) | > 32 | 32 (≈ 78.9 µM) | 16 (≈ 39.5 µM) | > 32 | 16 (≈ 39.5 µM) | 32 (≈ 78.9 µM) |
| O=C(O)c1ccc(-n2cc(CNc3ccc(Br)c(Cl)c3)c(-c3ccc(F)c(F)c3)n2)cc1 | 2 (≈ 3.86 µM) | 4 (≈ 7.71 µM) | 0.5 (≈ 0.964 µM) | 2 (≈ 3.86 µM) | 4 (≈ 7.71 µM) | 1 (≈ 1.93 µM) | 1 (≈ 1.93 µM) | 4 (≈ 7.71 µM) | 2 (≈ 3.86 µM) | 2 (≈ 3.86 µM) |
| O=C(O)c1ccc(-n2cc(CNc3ccccc3)c(-c3ccc(F)c(F)c3)n2)cc1 | 32 (≈ 78.9 µM) | 32 (≈ 78.9 µM) | 16 (≈ 39.5 µM) | 8 (≈ 19.7 µM) | > 32 | 32 (≈ 78.9 µM) | 16 (≈ 39.5 µM) | > 32 | 32 (≈ 78.9 µM) | 16 (≈ 39.5 µM) |
| O=C(O)c1ccc(-n2cc(CNc3ccc(Cl)cc3)c(-c3ccc(F)c(F)c3)n2)cc1 | > 32 | > 32 | > 32 | 4 (≈ 9.09 µM) | > 32 | > 32 | > 32 | > 32 | > 32 | > 32 |
| O=C(O)c1ccc(-n2cc(CNc3cc(Cl)ccc3Cl)c(-c3cccc(F)c3)n2)cc1 | 32 (≈ 70.1 µM) | 32 (≈ 70.1 µM) | 32 (≈ 70.1 µM) | 8 (≈ 17.5 µM) | 32 (≈ 70.1 µM) | 16 (≈ 35.1 µM) | 32 (≈ 70.1 µM) | 32 (≈ 70.1 µM) | 32 (≈ 70.1 µM) | 32 (≈ 70.1 µM) |
| O=C(O)c1ccc(-n2cc(CNc3ccc(C(F)(F)F)cc3)c(-c3ccc(F)c(F)c3)n2)cc1 | 4 (≈ 8.45 µM) | 8 (≈ 16.9 µM) | 1 (≈ 2.11 µM) | 1 (≈ 2.11 µM) | > 32 | 2 (≈ 4.22 µM) | 2 (≈ 4.22 µM) | > 32 | 2 (≈ 4.22 µM) | 4 (≈ 8.45 µM) |
| O=C(O)c1ccc(-n2cc(CNc3cc(Cl)cc(C(F)(F)F)c3)c(-c3cccc(F)c3)n2)cc1 | 2 (≈ 4.08 µM) | 2 (≈ 4.08 µM) | 1 (≈ 2.04 µM) | 0.5 (≈ 1.02 µM) | 2 (≈ 4.08 µM) | 1 (≈ 2.04 µM) | 2 (≈ 4.08 µM) | 4 (≈ 8.17 µM) | 1 (≈ 2.04 µM) | 4 (≈ 8.17 µM) |
| O=C(O)c1ccc(-n2cc(CNc3ccc(Cl)c(C(F)(F)F)c3)c(-c3ccc(F)c(F)c3)n2)cc1 | 2 (≈ 3.94 µM) | 2 (≈ 3.94 µM) | 0.5 (≈ 0.985 µM) | 0.5 (≈ 0.985 µM) | 4 (≈ 7.88 µM) | 1 (≈ 1.97 µM) | 1 (≈ 1.97 µM) | 4 (≈ 7.88 µM) | 2 (≈ 3.94 µM) | 4 (≈ 7.88 µM) |
| O=C(O)c1ccc(-n2cc(CNc3ccc(F)c(F)c3)c(-c3cccc(F)c3)n2)cc1 | 16 (≈ 37.8 µM) | 32 (≈ 75.6 µM) | 16 (≈ 37.8 µM) | 8 (≈ 18.9 µM) | 32 (≈ 75.6 µM) | 16 (≈ 37.8 µM) | 16 (≈ 37.8 µM) | > 32 | 16 (≈ 37.8 µM) | 32 (≈ 75.6 µM) |
| O=C(O)c1ccc(-n2cc(CNc3ccc(Oc4ccccc4)cc3)c(-c3ccc(F)c(F)c3)n2)cc1 | 2 (≈ 4.02 µM) | 2 (≈ 4.02 µM) | 1 (≈ 2.01 µM) | 1 (≈ 2.01 µM) | 4 (≈ 8.04 µM) | 1 (≈ 2.01 µM) | 1 (≈ 2.01 µM) | 4 (≈ 8.04 µM) | 2 (≈ 4.02 µM) | 2 (≈ 4.02 µM) |
| O=C(O)c1ccc(-n2cc(CNc3cc(F)c(F)c(F)c3)c(-c3ccc(F)cc3)n2)cc1 | > 32 | > 32 | > 32 | 4 (≈ 9.06 µM) | > 32 | > 32 | 32 (≈ 72.5 µM) | > 32 | > 32 | > 32 |
| O=C(O)c1ccc(-n2cc(CNc3ccc(Br)cc3)c(-c3ccc(F)cc3)n2)cc1 | 16 (≈ 34.3 µM) | > 32 | 4 (≈ 8.58 µM) | 4 (≈ 8.58 µM) | > 32 | 16 (≈ 34.3 µM) | 8 (≈ 17.2 µM) | > 32 | > 32 | > 32 |
| O=C(O)c1ccc(-n2cc(CNc3cccc(OC(F)(F)F)c3)c(-c3ccc(F)c(F)c3)n2)cc1 | 4 (≈ 8.17 µM) | 4 (≈ 8.17 µM) | 1 (≈ 2.04 µM) | 1 (≈ 2.04 µM) | 8 (≈ 16.3 µM) | 2 (≈ 4.09 µM) | 4 (≈ 8.17 µM) | 8 (≈ 16.3 µM) | 4 (≈ 8.17 µM) | 8 (≈ 16.3 µM) |
| Cc1cc(NCc2cn(-c3ccc(C(=O)O)cc3)nc2-c2ccc(F)cc2)ccc1Br | 2 (≈ 4.16 µM) | 8 (≈ 16.7 µM) | 2 (≈ 4.16 µM) | 1 (≈ 2.08 µM) | 8 (≈ 16.7 µM) | 2 (≈ 4.16 µM) | 4 (≈ 8.33 µM) | 16 (≈ 33.3 µM) | 4 (≈ 8.33 µM) | 4 (≈ 8.33 µM) |
| O=C(O)c1ccc(-n2cc(CNc3ccc(Cl)cc3)c(-c3ccc(F)cc3)n2)cc1 | 8 (≈ 19 µM) | > 32 | 4 (≈ 9.48 µM) | 4 (≈ 9.48 µM) | > 32 | 32 (≈ 75.9 µM) | > 32 | > 32 | > 32 | > 32 |
| O=C(O)c1ccc(-n2cc(CNc3ccc(F)c(Cl)c3)c(-c3ccc(F)cc3)n2)cc1 | 8 (≈ 18.2 µM) | 16 (≈ 36.4 µM) | 2 (≈ 4.55 µM) | 2 (≈ 4.55 µM) | > 32 | 4 (≈ 9.09 µM) | 8 (≈ 18.2 µM) | > 32 | 8 (≈ 18.2 µM) | 32 (≈ 72.8 µM) |
| O=C(O)c1ccc(-n2cc(CNc3cccc(C(F)(F)F)c3)c(-c3ccc(F)cc3)n2)cc1 | 4 (≈ 8.78 µM) | 8 (≈ 17.6 µM) | 2 (≈ 4.39 µM) | 2 (≈ 4.39 µM) | 16 (≈ 35.1 µM) | 4 (≈ 8.78 µM) | 8 (≈ 17.6 µM) | 16 (≈ 35.1 µM) | 8 (≈ 17.6 µM) | 8 (≈ 17.6 µM) |
| O=C(O)c1ccc(-n2cc(CNc3ccc(F)c(F)c3F)c(-c3ccc(F)c(F)c3)n2)cc1 | > 32 | > 32 | 2 (≈ 4.35 µM) | 2 (≈ 4.35 µM) | > 32 | 8 (≈ 17.4 µM) | > 32 | > 32 | > 32 | > 32 |
| O=C(O)c1ccc(-n2cc(CNc3cc(Cl)cc(Cl)c3)c(-c3ccc(F)cc3)n2)cc1 | 2 (≈ 4.38 µM) | 4 (≈ 8.77 µM) | 1 (≈ 2.19 µM) | 0.5 (≈ 1.1 µM) | 4 (≈ 8.77 µM) | 1 (≈ 2.19 µM) | 1 (≈ 2.19 µM) | 4 (≈ 8.77 µM) | 1 (≈ 2.19 µM) | 2 (≈ 4.38 µM) |
| NS(=O)(=O)c1ccc(NCc2cn(-c3ccc(C(=O)O)cc3)nc2-c2ccc(F)cc2)cc1 | > 32 | > 32 | > 32 | > 32 | > 32 | > 32 | > 32 | > 32 | > 32 | 16 (≈ 34.3 µM) |
| O=C(O)c1ccc(-n2cc(CNc3cc(Cl)cc(Cl)c3)c(-c3cccc(F)c3)n2)cc1 | 4 (≈ 8.77 µM) | – | 1 (≈ 2.19 µM) | 1 (≈ 2.19 µM) | – | 1 (≈ 2.19 µM) | 2 (≈ 4.38 µM) | 8 (≈ 17.5 µM) | 1 (≈ 2.19 µM) | – |
| O=C(O)c1ccc(-n2cc(CNc3ccc(Br)c(Cl)c3)c(-c3cccc(F)c3)n2)cc1 | 2 (≈ 3.99 µM) | 4 (≈ 7.99 µM) | 1 (≈ 2 µM) | 1 (≈ 2 µM) | 4 (≈ 7.99 µM) | 1 (≈ 2 µM) | – | 8 (≈ 16 µM) | 1 (≈ 2 µM) | 4 (≈ 7.99 µM) |
